These results are taken from article PMC11642889, “Structure-Based Screening and Optimization of PafA Inhibitors with Potent Anti-Tuberculosis Activity” (International Journal of Molecular Sciences, 2024).

The target of the test is Mtb PafA (Mycobacterium tuberculosis, UniProt P9WNU7). Description: fluorescent pupylation assay of PanB with 5-carboxyfluorescein-cys-Pup^E. Format: biochemical.

A word on the IC50: it is the concentration at which inhibition is half-maximal.

Chain of Mtb PafA (P9WNU7 whole entry, looked up): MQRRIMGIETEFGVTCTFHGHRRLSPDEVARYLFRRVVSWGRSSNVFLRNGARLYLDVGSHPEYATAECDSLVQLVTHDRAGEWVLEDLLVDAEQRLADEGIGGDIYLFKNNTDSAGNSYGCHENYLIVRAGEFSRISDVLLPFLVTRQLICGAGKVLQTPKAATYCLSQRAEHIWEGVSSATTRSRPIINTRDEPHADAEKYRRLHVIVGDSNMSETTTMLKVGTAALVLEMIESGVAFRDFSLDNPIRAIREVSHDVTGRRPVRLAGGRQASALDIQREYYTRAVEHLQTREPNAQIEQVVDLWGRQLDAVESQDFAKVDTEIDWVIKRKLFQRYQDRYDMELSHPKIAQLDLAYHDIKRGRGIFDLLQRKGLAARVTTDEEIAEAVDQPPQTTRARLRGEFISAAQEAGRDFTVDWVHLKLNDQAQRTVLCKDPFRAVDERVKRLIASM

In turn, `NS(=O)(=O)c1ccc(NC(=S)NCCc2ccc(F)cc2)cc1` [Pi-2-26] returned an IC50 of 46.2 ± 7.96 nM.
